The subject of this experiment is influenza A (H1N1). Briefly: Influenza virus mouse model, feed supplemented with N5G. It is filed as in vivo. The text has this:
The overall purpose of the study was to determine whether the N5G nutritional supplement has the ability to have significant impact on clinical disease outcomes caused by influenza virus in a mouse animal model.
The experimental design included adherence to a strict feeding schedule, which included 30 days of acclimation of mice to a defined base feed (AIN-93M) provided by Purina TestDiet, Inc. Control animals remained continuously fed with the defined base feed, while the experimental mouse group was fed with the base feed supplemented with 0.35% of N5G.
Experimental and control mouse groups were infected intranasally with 107.5 TCID50 influenza A (H1N1) with each mouse receiving 5iL of viral inoculum per nostril. The experimental parameters followed during the study were: 1) mouse weight changes; 2) food intake changes; 3) clinical signs of disease; 4) lung tissue pathology; 5) lung consolidation scores; 6) changes in viral loads.
Overall, the experimental design was executed without any major obstacles. As expected, there was minor occasional wasting of feed in some cages (mice chewed on feed which was dropped on the bottom of the cage). In every instance noted on daily observations, the residual feed was weighed, but it was excluded in any statistical calculations as well as in the calculation of baseline feed intake.
As expected, all influenza infected mice developed clinical signs of disease starting 2 days post infection. Clinical signs included: 1) ruffled fur, 2) inactivity, 3) hunching, 4) death, 5) weight loss, and 6) loss of appetite.
Clinical signs 1-4 were scored by two independent observers using a scale of 0-5. The cumulative scores were plotted and statistically analyzed. Statistical analyses were performed using SAS v.9.1.3. An analysis of variance (ANOVA) of a repeated measures design was calculated in a split-plot arrangement of treatments, with the treatment group on the main plot, and the subplot including day and treatment by day interactions. Interaction of pairwise comparisons of least square means was performed with a pairwise t-test with pre-planned comparisons. This statistical methodology was used for all comparisons in the study.
D. The most important aspect of influenza infections is the resultant lung immunopathology. Typically, viral replication as well as infiltration of lymphocytes causes substantial damage to lung tissues. In fact, it is believed that infiltration of lymphocytes and their negative effects on lungs tissues is the most important parameter of influenza-related morbidity and mortality in humans. Consequently, particular care was taken to examine the tissues of mice for signs of histopathological changes. The following evaluation criteria were utilized to score these changes: 1) Lung consolidation scores (LCS); 2) Histopathological scores (HS). LCS were rated as follows: grade 1: no plum coloration; grade 2: minimum plum coloration; grade 3: medium plum coloration; grade 4: maximum plum coloration. HS were rated as follows: Grade 0: no overt histological change; grade 1+: only bronchial/bronchiolar and/or peri-bronchial/bronchiolar/vascular changes; grade 2+: 1-10% pulmonary parenchyma affected; grade 3+: 11-30% pulmonary parenchyma affected; grade 4:+: 31-50% pulmonary parenchyma affected; grade 5+: greater than 50% pulmonary parenchyma affected.

Consider `O=C(CO)N[C@H]1[C@H]([C@H](O)[C@H](O)CO)O[C@](O)(C(=O)O)C[C@@H]1O` [NGNA, n-glycolylneuraminic acid], for which the “Viral titers from lung homogenates” value (mice, 2 days post infection, treated and untreated) is “less than 100 plaque forming units (PFU) per 250iL of homogenate”. Moreover, for the setting “mice, base feed with 0.35% N5G, days 6-8 post infection, FIG. 3”, the “Clinical signs 1-4 scores (ruffled fur, inactivity, hunching, death), treated versus untreated” value is reported as “Statistically significant differences”. Also, for the setting “mice, day 6 post infection, grades 0 to 5+, FIG. 7”, the “Histopathological scores, treated versus untreated” value was “statistically significant difference”. For the same compound, the “Viral titers from lung homogenates, treated versus untreated” value (mice, days 2, 4, 6, 8 and 21 post infection, one mouse per group per time point) is “No significant differences”. The “% change in mouse weights, untreated versus treated” value (mice, days 3-9 post infection, FIG. 5) was “highly significant reduction in body weights was observed in the control mouse group”. Also, the “% daily feed intake” value (mice, days 5-6 post infection, FIG. 4, group with the loss not stated) is reported as “statistically significant loss of appetite”. Where the note is “mice, grades 1-4, FIG. 6”, the “Lung consolidation scores, treated versus untreated” value was ““trend” toward a healthier status of treated versus untreated mice. However, there results were not statistically significant”. The “Effect on ameliorating clinical symptoms and adverse pathological implication of influenza infection” value (mouse experimental model, overall conclusion) was “significant effect”.

Source of the values: patent publication US11672814B2, “NGNA compositions and methods of use” (priority 2008, dated 2023).
